Columns and labels:
blackgrass = experiment: Test Example 5: herbicidal effect by foliage application, plastic box (Table 20, symbol J); format: in vivo, blackgrass (Alopecurus myosuroides); conditions: foliage application after 14-day growth, evaluated three weeks after application
Procedure, shortened: (§1)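 Post-emergence foliar test in sterilized diluvial soil. Compound applied as water-diluted emulsion at a predetermined rate to 14-day-old plants; evaluation at three weeks.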

southern crabgrass = experiment: Test Example 5: herbicidal effect by foliage application, plastic box (Table 20, symbol F); format: in vivo, southern crabgrass (Digitaria ciliaris); conditions: foliage application after 14-day growth, evaluated three weeks after application
Procedure, shortened: as §1

velvetleaf = experiment: Test Example 5: herbicidal effect by foliage application, plastic box (Table 20, symbol M); format: in vivo, velvetleaf (Abutilon theophrasti); conditions: foliage application after 14-day growth, evaluated three weeks after application
Procedure, shortened: as §1

barnyard grass [1] = experiment: Test Example 3: herbicidal effect by foliage application, Wagner pot (Table 18, symbol H); format: in vivo, barnyard grass (Echinochloa crus-galli); conditions: 320 g/ha
Procedure, shortened: (§2)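 Plants were sown in alluvial soil held under 0.1–0.5 cm standing water and grown 14 days in a greenhouse at 25–30 °C. An emulsifiable formulation, water-diluted to the set dose, was then sprayed onto the foliage, and effects were scored three weeks later using previously defined criteria.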

green foxtail = experiment: Test Example 5: herbicidal effect by foliage application, plastic box (Table 20, symbol G); format: in vivo, green foxtail (Setaria viridis); conditions: foliage application after 14-day growth, evaluated three weeks after application
Procedure, shortened: as §1

wild oat = experiment: Test Example 5: herbicidal effect by foliage application, plastic box (Table 20, symbol I); format: in vivo, wild oat (Avena fatua); conditions: foliage application after 14-day growth, evaluated three weeks after application
Procedure, shortened: as §1

barnyard grass [2] = experiment: Test Example 5: herbicidal effect by foliage application, plastic box (Table 20, symbol H); format: in vivo, barnyard grass (Echinochloa crus-galli); conditions: foliage application after 14-day growth, evaluated three weeks after application
Procedure, shortened: as §1

lambsquarters = experiment: Test Example 5: herbicidal effect by foliage application, plastic box (Table 20, symbol O); format: in vivo, lambsquarters (Chenopodium album); conditions: foliage application after 14-day growth, evaluated three weeks after application
Procedure, shortened: as §1

persian speedwell = experiment: Test Example 5: herbicidal effect by foliage application, plastic box (Table 20, symbol R); format: in vivo, Persian speedwell (Veronica persica); conditions: foliage application after 14-day growth, evaluated three weeks after application
Procedure, shortened: as §1

Italian ryegrass = experiment: Test Example 5: herbicidal effect by foliage application, plastic box (Table 20, symbol K); format: in vivo, Italian ryegrass (Lolium multiflorum); conditions: foliage application after 14-day growth, evaluated three weeks after application
Procedure, shortened: as §1

Chinese sprangletop = experiment: Test Example 3: herbicidal effect by foliage application, Wagner pot (Table 18, symbol D); format: in vivo, chinese sprangletop (Leptochloa chinensis); conditions: 320 g/ha
Procedure, shortened: as §2

rice flat sedge = experiment: Test Example 3: herbicidal effect by foliage application, Wagner pot (Table 18, symbol E); format: in vivo, rice flat sedge (Cyperus iria); conditions: 320 g/ha
Procedure, shortened: as §2

windgrass = experiment: Test Example 5: herbicidal effect by foliage application, plastic box (Table 20, symbol L); format: in vivo, windgrass (Apera spica-venti); conditions: foliage application after 14-day growth, evaluated three weeks after application
Procedure, shortened: as §1

late watergrass = experiment: Test Example 1: herbicidal activity, application before weed generation under submerged conditions (Table 16, symbol A); format: in vivo, late watergrass (Echinochloa oryzicola); conditions: amount of applied herbicide 320 g/ha
Procedure, shortened: (§3)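 Emulsion formulation, water-diluted to set dose, was put onto the flooded surface (4 cm depth, alluvial soil) the same day weeds were sown and 2.5-leaf rice transplanted. After 3 weeks at 25-30 °C under glass, each species was rated 0 (≤5% kill) to 5 (≥90% kill).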

redroot pigweed = experiment: Test Example 5: herbicidal effect by foliage application, plastic box (Table 20, symbol N); format: in vivo, redroot pigweed (Amaranthus retroflexus); conditions: foliage application after 14-day growth, evaluated three weeks after application
Procedure, shortened: as §1

oval-leafed pondweed = experiment: Test Example 1: herbicidal activity, application before weed generation under submerged conditions (Table 16, symbol C); format: in vivo, oval-leafed pondweed (Monochoria vaginalis); conditions: amount of applied herbicide 320 g/ha
Procedure, shortened: as §3

Japanese bulrush = experiment: Test Example 1: herbicidal activity, application before weed generation under submerged conditions (Table 16, symbol B); format: in vivo, Japanese bulrush (Schoenoplectus juncoides); conditions: amount of applied herbicide 320 g/ha
Procedure, shortened: as §3

chickweed = experiment: Test Example 5: herbicidal effect by foliage application, plastic box (Table 20, symbol P); format: in vivo, common chickweed (Stellaria media); conditions: foliage application after 14-day growth, evaluated three weeks after application
Procedure, shortened: as §1

[3] = amount of applied herbicide 320 g/ha

SMILES: COc1ccc(-c2sc3c(F)cccc3c2-c2c(O)c(C)nn(C)c2=O)cc1OC [4-013]
- herbicidal effect on J: blackgrass (evaluation grade 0-5) (blackgrass; 320 g/ha): 3 (Herbicidal rate of 40% or more and less than 70%)
- herbicidal effect on F: southern crabgrass (evaluation grade 0-5) (southern crabgrass; 320 g/ha): 1 (Herbicidal rate of 5% or more and less than 20%)
- herbicidal effect on M: velvetleaf (evaluation grade 0-5) (velvetleaf; 320 g/ha): 3 (Herbicidal rate of 40% or more and less than 70%)
- herbicidal effect on barnyard grass (H) (barnyard grass [1]): 3 (Herbicidal rate of 40% or more and less than 70%)
- herbicidal effect on G: green foxtail (evaluation grade 0-5) (green foxtail; 320 g/ha): 5 (Herbicidal rate of 90% or more (almost completely withered))
- herbicidal effect on I: wild oat (evaluation grade 0-5) (wild oat; 320 g/ha): 0 (Herbicidal rate of 5% or less (almost no effect))
- herbicidal effect on H: barnyard grass (evaluation grade 0-5) (barnyard grass [2]; 320 g/ha): 1 (Herbicidal rate of 5% or more and less than 20%)
- herbicidal effect on O: lambsquarters (evaluation grade 0-5) (lambsquarters; 320 g/ha): 0 (Herbicidal rate of 5% or less (almost no effect))
- herbicidal effect on R: persian speedwell (evaluation grade 0-5) (persian speedwell; 320 g/ha): 5 (Herbicidal rate of 90% or more (almost completely withered))
- herbicidal effect on K: Italian ryegrass (evaluation grade 0-5) (Italian ryegrass; 320 g/ha): 4 (Herbicidal rate of 70% or more and less than 90%)
- herbicidal effect on Chinese sprangletop (D) (Chinese sprangletop): 3 (Herbicidal rate of 40% or more and less than 70%)
- herbicidal effect on rice flat sedge (E) (rice flat sedge): 4 (Herbicidal rate of 70% or more and less than 90%)
- herbicidal effect on L: windgrass (evaluation grade 0-5) (windgrass; 320 g/ha): 0 (Herbicidal rate of 5% or less (almost no effect))
- Herbicidal effect, A: late watergrass (late watergrass): 3 (Herbicidal rate of 40% or more and less than 70%)
- herbicidal effect on N: redroot pigweed (evaluation grade 0-5) (redroot pigweed; 320 g/ha): 0 (Herbicidal rate of 5% or less (almost no effect))
- Herbicidal effect, C: oval-leafed pondweed (oval-leafed pondweed): 3 (Herbicidal rate of 40% or more and less than 70%)
- Herbicidal effect, B: Japanese bulrush (Japanese bulrush): 0 (Herbicidal rate of 5% or less (almost no effect))
- herbicidal effect on P: chickweed (evaluation grade 0-5) (chickweed; 320 g/ha): 5 (Herbicidal rate of 90% or more (almost completely withered))

SMILES: Cc1nn(C)c(=O)c(-c2c(-c3cccc4c3OCC4)sc3c(Cl)cccc23)c1O [4-098]
- Herbicidal effect by foliage application, J: blackgrass (blackgrass; [3]): 0 (Herbicidal rate of 5% or less (almost no effect))
- Herbicidal effect by foliage application, F: southern crabgrass (southern crabgrass; [3]): 3 (Herbicidal rate of 40% or more and less than 70%)
- Herbicidal effect by foliage application, M: velvetleaf (velvetleaf; [3]): 3 (Herbicidal rate of 40% or more and less than 70%)
- herbicidal effect on barnyard grass (H) (barnyard grass [1]): 4 (Herbicidal rate of 70% or more and less than 90%)
- Herbicidal effect by foliage application, G: green foxtail (green foxtail; [3]): 3 (Herbicidal rate of 40% or more and less than 70%)
- Herbicidal effect by foliage application, I: wild oat (wild oat; [3]): 0 (Herbicidal rate of 5% or less (almost no effect))
- Herbicidal effect by foliage application, H: barnyard grass (barnyard grass [2]; [3]): 1 (Herbicidal rate of 5% or more and less than 20%)
- Herbicidal effect by foliage application, O: lambsquarters (lambsquarters; [3]): 3 (Herbicidal rate of 40% or more and less than 70%)
- Herbicidal effect by foliage application, R: persian speedwell (persian speedwell; [3]): 5 (Herbicidal rate of 90% or more (almost completely withered))
- Herbicidal effect by foliage application, K: Italian ryegrass (Italian ryegrass; [3]): 0 (Herbicidal rate of 5% or less (almost no effect))
- herbicidal effect on Chinese sprangletop (D) (Chinese sprangletop): 3 (Herbicidal rate of 40% or more and less than 70%)
- herbicidal effect on rice flat sedge (E) (rice flat sedge): 3 (Herbicidal rate of 40% or more and less than 70%)
- Herbicidal effect by foliage application, L: windgrass (windgrass; [3]): 2 (Herbicidal rate of 20% or more and less than 40%)
- Herbicidal effect, A: late watergrass (late watergrass): 3 (Herbicidal rate of 40% or more and less than 70%)
- Herbicidal effect by foliage application, N: redroot pigweed (redroot pigweed; [3]): 3 (Herbicidal rate of 40% or more and less than 70%)
- Herbicidal effect, C: oval-leafed pondweed (oval-leafed pondweed): 0 (Herbicidal rate of 5% or less (almost no effect))
- Herbicidal effect, B: Japanese bulrush (Japanese bulrush): 0 (Herbicidal rate of 5% or less (almost no effect))
- Herbicidal effect by foliage application, P: chickweed (chickweed; [3]): 5 (Herbicidal rate of 90% or more (almost completely withered))

— patent US20230085307A1, “PYRIDAZINONE COMPOUND AND HERBICIDE” (NISSAN CHEMICAL CORPORATION, priority 2019, published 2023)
